Results reported in patent US20070098735A1, “Methods for the Elimination of Pathogens and Other Particulate Agents” (priority 2005, published 2007).

How the values were obtained:
[1] = system: full thickness wounds of naïve mice; test: Adoptive transfer of pre-treated RAW 264.7 macrophages into wounded mice, wound closure; format: in vivo
Method: Macrophage Cell Culture, Pre-treatment, and Adoptive Transfer. RAW 264.7 macrophages (ATCC) were grown as described by ATCC. Cells were harvested by gently scraping them from the cell culture flasks, centrifuged and washed once in cultured grade PBS. […] They were then washed 3 times with PBS, and were re-suspended to achieve a concentration of 400,000, 40,000, or 4,000 cells per 0.5 ml PBS. Adoptive transfer of these cells was performed by subcutaneous injections in the nape of the neck using a 25-gauge needle in mice that were wounded as previously described. Adoptive transfers were given on days 0, 2 and 4 post-operatively.
Macrophages were treated in vitro with either HSPs or non-HSP controls and transferred into naïve wounded mice (as described in Materials and Methods) to test if HSPs could in part mediate some of their activity through macrophages. […] Data is plotted as average percent wound closure ±SEM on day 2. *P values were obtained using the Student's t-test by comparing HSP treatment to all of the non-HSP control treatments. The least significant P value was reported.
Titratability of adoptive transfer was examined by transferring 4,000, 40,000 or 400,000 macrophages pre-treated as described in Materials and Methods.

[2] = system: CD4+ T cells purified from spleens of DO 11.10 mice (IFN-γ); test: IFN-γ release by CD4+ T cells (ELISA); format: cell-based; conditions: compared to ova-coated yeast alone or HSP70 given alone
Method: (§1) Proliferation of CD4+ T cells and INF-γ (interferon gamma) release. Unlabeled S. cerevisiae (80 μg) was incubated with excess chicken ovary albumin (OVA) at 37° C. for 1 hour and washed repeatedly to eliminate free OVA protein. S. cerevisiae-OVA complexes (OVA-coated yeast) were administered to macrophages treated with or without HSP70. Macrophages were then washed and irradiated at 12,000 rads and assessed for viability by trypan blue exclusion. Subsequently, they were co-cultured with CD4+ T lymphocytes that were purified from spleens of DO 11.10 mice and labeled with carboxyfluoroscein succinimidyl ester (CSFE). […] Following the 48-hour incubation, proliferation of CD4+ cells was determined with FACS and IFN-γ release in the supernatant was tested by enzyme-linked immunosorbent assay (ELISA; Pierce, Ill.).
(§2) Alexafluor labeled S. cerevisiae were coated with whole ovalbumin (OVA) protein 1 mg/ml by co-incubation at 37° C. for 20 minutes and washed until free OVA protein was removed (washes were tested by gel electrophoresis using SDS-PAGE and immunoblotting). […] Resultant proliferation of the CSFE-labeled CD4+ was measured by FACS as an indirect measure of the amount of OVA protein processed and its peptide epitope presented in context of MHC-II. […]

[3] = system: Murine macrophage lines (RAW264.7, J774.A1 or RAW264NO-); test: Phagocytosis assay in vitro (uptake of Alexa Fluor 488-labeled particles); format: cell-based
How it was run: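 Macrophages in serum-free EMEM took up Alexa Fluor 488 beads, yeast or E. coli (40 particles/cell) for 60 min at 37 °C with or without HSPs, LPS or control proteins. Trypan blue (0.8 mg/ml, 60 s) quenched external fluorescence, and intracellular signal was read as relative mean fluorescence intensity. Data are from 3 experiments, 3 wells/group, compared with medium alone by Student's t test.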

[4] = system: macrophages
[5] = system: RAW 264.7 macrophages; test: In vitro macrophage phagocytosis of wound debris; format: cell-based, murine; conditions: RAW264.7, labeled wound debris, 37° C.
[6] = system: CD4+ T cells purified from spleens of DO 11.10 mice; test: Proliferation of CD4+ T cells after MHC-II presentation of OVA-coated yeast by macrophages (FACS); format: cell-based; conditions: macrophages treated with HSP70 100 μg/ml and OVA-coated yeast
Method: as §1, §2

## HSP70: heat shock protein purified from murine livers, prepared as a complex with endogenous peptide
[1]; 4,000, 40,000 or 400,000 pre-treated macrophages
  titratability of adoptive transfer by cell number: Increasing the number of HSP pretreated cells increases the percentage of wound closure
[1]; 400,000 macrophages pre-treated at 30 μg/dose
  early wound closure after adoptive transfer of pre-treated macrophages: significantly accelerated early wound closure
[1]; 400,000 macrophages pre-treated at 30 μg/dose, day 2 post surgery
  wound healing on day 2 after adoptive transfer of pre-treated macrophages: 62%
[2]
  IFN-γ production by CD4+ cells: increase in their ability to produce IFN-γ
[3]; HSP70 100 μg/ml vs TLR7-ligands 1 mg/ml
  rank as stimulator of phagocytosis among the agents tested: most potent stimulator of phagocytosis
[3]; HSPs 100 μg/ml, P<0.01 vs medium alone
  uptake of microbial or non-microbial materials as compared to control proteins or buffer: increase in uptake
[3]; RAW264.7, labeled S. cerevisiae, HSP70 100 μg/ml, 60 minutes at 37° C.
  increase in phagocytosis: 4-6 times the basal rate
[3]; compared with HSP and yeast administered simultaneously
  uptake of yeast by macrophages pre-treated with HSP and washed: enhanced the uptake of yeast to the same extent
[3]; dose range 10-100 μg/ml
  doses unable to stimulate uptake: less than 20 μg/ml
[3]; doses up to 200 μg/ml
  quantity of phagocytosis at higher doses: did not result in any further increase in the quantity of phagocytosis
[3]; plateau through 100 μg/ml
  dose at which the peak effect occurred: 40 µg/mL
[3]; serum-free conditions, 1 hour, HSP70 100 μg/ml, LPS 25 ng-1 μg/ml, heating 100° C. for 20 minutes
  ability to enhance phagocytosis: able to enhance phagocytosis equally whether in the presence or absence of serum
[3]; time-titration 10-90 minutes
  time for antigen uptake to reach a plateau: ≤ 45 min
[4]
  cytotoxicity of HSP-treatment (trypan blue exclusion): not cytotoxic
[5]
  increase in phagocytosed wound debris compared to controls: 25%
[6]
  CD4+ proliferation: 20%
